Data published in paper PMC11843613, “Further Optimization of the mGlu1 PAM VU6024578/BI02982816: Discovery and Characterization of VU6033685” (ACS Chemical Neuroscience, 2025).

How the values were obtained:
Type in all cases: in vitro ADME
[1] = Predicted hepatic clearance from hepatic microsomes (human)
Description: Intrinsic clearance: Human or rat hepatic microsomes (0.5 mg/mL) and 1 µM test compound were incubated in 100 mM potassium phosphate pH 7.4 buffer with 3 mM MgCl2 at 37°C with constant shaking.
After a 5 min preincubation, the reaction was initiated by addition of NADPH (1 mM). At selected time intervals (0, 3, 7, 15, 25, and 45 min), aliquots were taken and subsequently placed into a 96-well plate containing cold acetonitrile with internal standard (50 ng/mL carbamazepine). Plates were then centrifuged at 3000 rcf (4° C) for 10 min, and the supernatant was transferred to a separate 96-well plate and diluted 1:1 with water for LC/MS/MS analysis. The in vitro half-life (T 1/2, min, Eq. 1), intrinsic clearance (CLint, mL/min/kg, Eq. 2) and subsequent predicted hepatic clearance (CLhep, mL/min/kg, Eq. 3) was determined […]
employing the following equations: […]
where k represents the slope from linear regression analysis of the natural log percent remaining of test compound as a function of incubation time
0.693 mL incubation 45 mg microsomes 20a gram liver
(2) CLint = in vitroT x mg microsomes x gram liver x kg body wt […]
ascale-up factors: of 20 (human) or 45 (rat) […]
where Qh (hepatic blood flow, mL/min/kg) is 21 (human) or 70 (rat).
LC/MS/MS Bioanalysis of Samples from Plasma Protein Binding and Intrinsic Clearance Assays. Samples were analyzed on a Thermo Electron TSQ Quantum Ultra triple quad mass spectrometer (San Jose, CA) via electrospray ionization (ESI) with two Themo Electron Accella pumps (San Jose, CA), and a Leap Technologies CTC PAL autosampler (Carrboro, NC). Analytes were separated by gradient elution on a dual column system with two Thermo Hypersil Gold (2.1 x 30 mm, 1.9 µm) columns (San Jose, CA) thermostated at 40°C. HPLC mobile phase A was 0.1% formic acid in water and mobile phase B was 0.1% formic acid in acetonitrile. The gradient […]
95% B for 0.2 min; returned to 10% B in 0.1 min. The total run time was 1.3 min and the HPLC flow rate was 0.8 mL/min. While pump 1 ran the gradient method, pump 2 equilibrated the alternate column isocratically at 10% B. Compound optimization, data collection and […]

CYP450 2C9 = biological target: T1, CYP450 2C9 (Homo sapiens, UniProt P11712); assay: Inhibition of cytochrome P450 enzymes in human liver microsomes, 2C9
T1 construct: 0.1 mg/mL human liver microsomes (HLM); from tissue; host or cells: human liver microsomes
Description: (§1) Inhibition of Cytochrome P450 Enzymes: A cocktail of substrates for cytochrome P450 enzymes (1A2: Phenacetin, 10 µM; 2C9: Diclofenac, 5 µM; 2D6: Dextromethorphan, 5 µM; 3A4:
(§2) Midazolam, 2 µM) were mixed for cocktail analysis. For P450 2C19, the substrate stock (Mephenytoin, 40 µM )and substrate mix were prepared separately for discrete analysis. The […]
(§3) positive control for pan-P450 inhibition (miconazole) was included alongside each test compound […]
(§4) A reaction mixture of 100 mM Kpi, pH 7.4, 0.1 mg/mL human liver microsomes (HLM) and Substrate Mix is prepared and aliquoted into a 96-deepwell block. Test compound and positive control (in duplicate) were then added such that the final concentration of test compound ranged from 0.1 – 30 µM. The plate was vortexed briefly and then pre-incubated at 37 °C while shaking for 15 minutes. The reaction was initiated with the addition of NADPH (1 mM final concentration). The incubation continued for 8 min and the reaction quenched by 2x volume of cold acetonitrile containing internal standard (50 nM carbamazepine). The plate was centrifuged for 10 minutes (4000 rcf, 4°C) and the resulting supernatant diluted 1:1 with water for LC/MS/MS analysis. A 12 point standard curve of substrate metabolites over the range of 0.98 nM to 2000 […]
(§5) Samples were analyzed via electrospray ionization (ESI) on an AB Sciex API-4000 (Foster City, CA) triple-quadrupole instrument that was coupled with Shimadzu LC-10AD pumps (Columbia, MD) and a Leap Technologies CTC PAL auto-sampler (Carrboro, NC). Analytes were separated by gradient elution using a Fortis C18 3.0 x 50 mm, 3 µm column (Fortis Technologies Ltd, Cheshire, UK) thermostated at 40°C. HPLC mobile phase A was 0.1% formic acid in water (pH unadjusted), mobile phase B was 0.1% formic acid in acetonitrile (pH unadjusted). The gradient […]
(§6) 90% B for 0.1 min and returned to 10% B in 0.1 min followed by a re-equilibration (0.9 min). The total run time was 2.5 min and the HPLC flow rate was 0.5 mL/min. The source temperature was set at 500°C and mass spectral analyses were performed using multiple reaction monitoring (MRM), with transitions specific for each compound utilizing a Turbo-Ionspray® source in positive ionization mode (5.0 kV spray voltage).
(§7) The IC50 values for each compound were obtained for the individual CYP enzymes by quantitating the inhibition of metabolite formation for each probe substrate. A 0 µM compound condition (or control) was set to 100% enzymatic activity and the effect of increasing test compound concentrations on enzymatic activity could then be calculated from the % of control activity.
(§8) Curves were fitted using XLfit 5.2.2 (four-parameter logistic model, equation 201) to determine the concentration that produces half-maximal inhibition (IC50).

CYP450 2D6 = biological target: T2, CYP450 2D6 (Homo sapiens, UniProt P10635); assay: Inhibition of cytochrome P450 enzymes in human liver microsomes, 2D6
T2 construct: 0.1 mg/mL human liver microsomes (HLM); from tissue; host or cells: human liver microsomes
Description: as §1, §2, §3, §4, §5, §6, §7, §8

CYP450 1A2 = biological target: T3, CYP450 1A2 (Homo sapiens, UniProt P05177); assay: Inhibition of cytochrome P450 enzymes in human liver microsomes, 1A2
T3 construct: 0.1 mg/mL human liver microsomes (HLM); from tissue; host or cells: human liver microsomes
T3 sequence (P05177 1-516): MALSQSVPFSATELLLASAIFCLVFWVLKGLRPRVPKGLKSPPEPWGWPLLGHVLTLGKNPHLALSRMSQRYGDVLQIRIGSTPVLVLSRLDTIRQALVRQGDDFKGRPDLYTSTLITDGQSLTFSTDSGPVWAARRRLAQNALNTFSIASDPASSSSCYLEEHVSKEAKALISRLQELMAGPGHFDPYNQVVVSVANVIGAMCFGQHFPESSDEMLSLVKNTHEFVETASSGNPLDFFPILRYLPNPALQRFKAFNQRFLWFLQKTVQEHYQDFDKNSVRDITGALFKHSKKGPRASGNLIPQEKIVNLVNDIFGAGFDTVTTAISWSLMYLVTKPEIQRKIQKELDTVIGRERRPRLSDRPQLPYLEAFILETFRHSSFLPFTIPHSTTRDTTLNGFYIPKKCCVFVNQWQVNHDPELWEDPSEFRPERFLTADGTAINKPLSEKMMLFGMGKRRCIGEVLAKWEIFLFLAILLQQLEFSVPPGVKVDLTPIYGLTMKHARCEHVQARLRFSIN
Description: as §1, §2, §3, §4, §5, §6, §7, §8

T1 sequence (P11712 whole entry): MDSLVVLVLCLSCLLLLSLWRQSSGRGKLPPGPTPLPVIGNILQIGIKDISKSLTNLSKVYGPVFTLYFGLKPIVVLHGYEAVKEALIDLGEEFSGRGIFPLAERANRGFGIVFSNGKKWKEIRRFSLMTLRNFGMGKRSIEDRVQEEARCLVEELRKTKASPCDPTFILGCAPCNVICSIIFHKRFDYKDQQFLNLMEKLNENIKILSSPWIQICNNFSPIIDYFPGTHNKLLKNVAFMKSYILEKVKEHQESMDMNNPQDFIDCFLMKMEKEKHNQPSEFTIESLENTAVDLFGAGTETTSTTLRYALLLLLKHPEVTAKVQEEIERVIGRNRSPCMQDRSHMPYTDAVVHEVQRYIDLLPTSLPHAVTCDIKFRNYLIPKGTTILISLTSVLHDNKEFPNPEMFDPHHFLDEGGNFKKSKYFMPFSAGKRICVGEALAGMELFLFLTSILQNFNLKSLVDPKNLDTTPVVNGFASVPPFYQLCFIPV
T2 sequence (P10635 whole entry): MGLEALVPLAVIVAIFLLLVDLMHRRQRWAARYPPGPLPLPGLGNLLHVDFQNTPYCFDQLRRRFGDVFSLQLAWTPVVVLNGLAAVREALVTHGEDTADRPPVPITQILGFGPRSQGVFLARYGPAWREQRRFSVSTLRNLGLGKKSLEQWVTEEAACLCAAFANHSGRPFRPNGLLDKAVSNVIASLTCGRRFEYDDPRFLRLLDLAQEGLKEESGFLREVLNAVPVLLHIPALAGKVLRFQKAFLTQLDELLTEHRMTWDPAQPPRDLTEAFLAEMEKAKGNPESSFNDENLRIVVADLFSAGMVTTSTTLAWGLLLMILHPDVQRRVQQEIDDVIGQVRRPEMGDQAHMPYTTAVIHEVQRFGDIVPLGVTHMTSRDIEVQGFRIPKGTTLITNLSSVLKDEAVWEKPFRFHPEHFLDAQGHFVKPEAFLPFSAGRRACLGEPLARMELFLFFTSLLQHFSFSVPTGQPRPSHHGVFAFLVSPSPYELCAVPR

SMILES | Predicted CLhep (h) [1] [mL/min/kg] | IC50 (CYP450 2C9) [µM] | IC50 (CYP450 2D6) [µM] | IC50 (CYP450 1A2) [µM]
Cc1nc(C2CC2)ccc1CNC(=O)c1cc(-n2cccn2)ccc1Cl [compound 8] | 9.9 | 22.3 | > 30 | 26
Cn1cc(-c2cc(CNC(=O)c3cc(-c4ccco4)ccc3Cl)n(C)n2)cn1 [compound 4] | 15.1 | > 30 | > 30 | 14.7

Continued, values first:

Predicted CLhep (h) [1] [mL/min/kg] | IC50 (CYP450 2C9) [µM] | IC50 (CYP450 2D6) [µM] | IC50 (CYP450 1A2) [µM] | SMILES
13.3 | 5.9 | > 30 | 11.2 | Cc1nc2c(F)cccc2cc1CNC(=O)c1cc(-n2cccn2)ccc1Cl [compound 7]
4.6 | > 30 | > 30 | > 30 | Cn1nc(-c2ccnn2C)cc1CNC(=O)c1cc(-n2cccn2)ccc1Cl [compound 5]
15.8 | 6.4 | 6.9 | 15.9 | Cc1nc2ccccc2cc1CNC(=O)c1cc(-n2cccn2)ccc1Cl [compound 6]
